In patent US10221163B2 (priority 2015, dated 2019):
Read-outs that look alike come from different tables or passages of the source.

Tests used:
[1] = tested on: Pseudomonas aeruginosa efflux+ (MB9798), IMP-1; format: cell-based; set-up: Concentration of metallo-β-lactamase inhibitor which restores susceptibility of efflux + (MB9798) strain to imipenem: unit not given here; conditions: C, D serine β-lactamase inhibitor closely related to relebactam; for P. aeruginosa expressing IMP-1, efflux + (MB9798) MITC95: concentration restoring susceptibility to imipenem at 2 μg/mL in the presence of a class A; for Concentration of metallo-β-lactamase inhibitor which restores susceptibility of efflux + (MB9798) strain to imipenem: imipenem at 2 μg/mL, in the presence of a class A
Summary of the method: (§1)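 PAO1 pair, broth microdilution; fixed β-lactam (imipenem/ceftazidime) at ~CLSI breakpoint + fixed class A/C BLI for AmpC; serial MBLi titration; endpoint = MBLi conc. restoring susceptibility; MB9798:MB9799 ratio = efflux liability.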

NDM-1 = NDM-1 (Klebsiella pneumoniae, UniProt C7C422); test: biochemical; format: biochemical; conditions: fluorescence assay, CCF2-FA substrate, 1 pM enzyme, 2 hours at 25° C.; read-out: NDM-1 IC50
Sequence of NDM-1 (C7C422 whole entry, looked up, species assumed): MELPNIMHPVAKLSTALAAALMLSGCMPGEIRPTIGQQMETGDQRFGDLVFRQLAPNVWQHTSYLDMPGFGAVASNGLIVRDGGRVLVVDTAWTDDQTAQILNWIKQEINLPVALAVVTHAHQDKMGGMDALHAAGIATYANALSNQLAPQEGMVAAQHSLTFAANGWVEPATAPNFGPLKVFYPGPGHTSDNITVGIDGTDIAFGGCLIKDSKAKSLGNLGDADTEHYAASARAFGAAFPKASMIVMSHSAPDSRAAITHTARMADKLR
Summary of the method: (§2)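 Enzyme activity was measured by fluorescence using CCF2-FA, a cephalosporin-linked 7-hydroxycoumarin/fluorescein substrate, with inhibitor, metallo-β-lactamase and substrate incubated together for 2 hours at 25° C. IC50 came from a 4-parameter fit of inhibition versus log inhibitor concentration.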

IMP-1 = IMP-1 (Serratia marcescens, UniProt P52699); test: biochemical; format: biochemical; conditions: fluorescence assay, CCF2-FA substrate, 2 pM enzyme, 2 hours at 25° C.; read-out: IMP-1 IC50
Sequence of IMP-1 (P52699 whole entry, looked up, species assumed): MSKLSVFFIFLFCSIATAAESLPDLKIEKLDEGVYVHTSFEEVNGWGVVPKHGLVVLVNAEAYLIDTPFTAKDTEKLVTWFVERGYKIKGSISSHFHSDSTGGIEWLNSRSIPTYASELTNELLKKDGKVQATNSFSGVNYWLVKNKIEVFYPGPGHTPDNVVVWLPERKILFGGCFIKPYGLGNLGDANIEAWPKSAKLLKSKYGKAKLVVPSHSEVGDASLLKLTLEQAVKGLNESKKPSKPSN
Summary of the method: as §2

[2] = tested on: Pseudomonas aeruginosa efflux− (MB9799), IMP-1; format: cell-based; conditions: C, D serine β-lactamase inhibitor closely related to relebactam; for P. aeruginosa expressing IMP-1, efflux − (MB9799) MITC95: concentration restoring susceptibility to imipenem at 2 μg/mL in the presence of a class A; for Concentration of metallo-β-lactamase inhibitor which restores susceptibility of efflux − (MB9799) strain to imipenem: imipenem at 2 μg/mL, in the presence of a class A
Summary of the method: as §1

VIM-1 = VIM-1 (Pseudomonas aeruginosa (strain ATCC 15692 / DSM 22644 / CIP 104116 / JCM 14847 / LMG 12228 / 1C / PRS 101 / PAO1), UniProt A0A0F7KYQ8); test: biochemical; conditions: CCF2-FA substrate, 30 pM enzyme, 2 hours at 25° C.
Summary of the method: as §2

[3] = tested on: Pseudomonas aeruginosa MB9798 vs MB9799
Summary of the method: as §1

[4] = tested on: Klebsiella pneumoniae expressing VIM-1 (IHMA599644); format: cell-based; conditions: for Klebsiella pneumoniae expressing VIM-1 (IHMA599644) MITC95: with imipenem 1 μg/ml, 95% inhibition of bacterial growth; for Klebsiella pneumoniae MITC95: VIM-1 strain IHMA599644, with imipenem 1 μg/ml, 95% inhibition of growth
Summary of the method: (§3)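 Imipenem 1 μg/ml + inhibitor; MBL-expressing clinical strains in 1.1×CAMHB, inoculum from saline suspension diluted 1:100; 35° C, 22–24 h; absorbance read-out.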

[5] = tested on: Escherichia coli expressing NDM-1 (CLB30005, CLB30016); format: cell-based; conditions: with imipenem 1 μg/ml; for Escherichia coli expressing NDM-1 (CLB30016) MITC95: 95% inhibition of bacterial growth; for Escherichia coli MITC95: NDM-1 strain, 95% inhibition of growth
Summary of the method: as §3

[6] = tested on: Serratia marcescens expressing IMP-1 (CL5741); format: cell-based; conditions: for Serratia marcescens expressing IMP-1 (CL5741) MITC95: with imipenem 1 μg/ml, 95% inhibition of bacterial growth; for Serratia marcescens MITC95: IMP-1 strain CL5741, with imipenem 1 μg/ml, 95% inhibition of growth
Summary of the method: as §3

[7] = ratio MITC95 PA_9798/MITC95 PA_9799
[8] = fluorescence assay, read-out: VIM-1 IC50
[9] = fold difference between efflux+ (MB9798) and efflux− (MB9799) strains, imipenem at 2 μg/mL

Structure (SMILES) | P. aeruginosa expressing IMP-1, efflux + (MB9798) MITC95 [1] [µM] | IC50 (NDM-1) [nM] | IC50 (IMP-1) [nM] | P. aeruginosa expressing IMP-1, efflux − (MB9799) MITC95 [2] [µM] | IC50 (VIM-1; VIM-1 IC50, fluorescence assay) [nM] | Efflux ratio [3, 7] | Klebsiella pneumoniae expressing VIM-1 (IHMA599644) MITC95 [4] [µM] | Escherichia coli expressing NDM-1 (CLB30016) MITC95 [5] [µM] | Serratia marcescens expressing IMP-1 (CL5741) MITC95 [6] [µM] | IC50 (VIM-1; [8]) [nM] | Klebsiella pneumoniae MITC95 [4] [µM] | Escherichia coli MITC95 [5] [µM] | Serratia marcescens MITC95 [6] [µM] | Concentration of metallo-β-lactamase inhibitor which restores susceptibility of efflux + (MB9798) strain to imipenem [1] | Concentration of metallo-β-lactamase inhibitor which restores susceptibility of efflux − (MB9799) strain to imipenem [2] | Efflux ratio [3, 9]
Nc1ncccc1-c1ccc(S(=O)(=O)N[C@H]2C[C@@H]2N)c(S(N)(=O)=O)c1-c1nn[nH]n1 [Example 216, N1-((1S)-2-amino-cyclopropyl)-4-(2-aminopyridin-3-yl)-3-(2H-tetrazol-5-yl)benzene-1,2-disulfonamide] | 6.25 | 0.237 | 1.83 | 1.563 | 0.269 | 4.00 | 3.125 | 0.1953 | 0.7813 | – | – | – | – | – | – | –
NCCNS(=O)(=O)c1ccc(-c2cccc3[nH]c([C@H](N)CN)nc23)c(-c2nn[nH]n2)c1S(N)(=O)=O [Example 335, (R)—N1-(2-aminoethyl)-4-(2-(1,2-diaminoethyl)-1H-benzo[d]imidazole-4-yl)-3-(2H-tetrazol-5-yl)benzene-1,2-disulfonamide] | 3.125 | 0.459 | 4.78 | 1.563 | – | 2.00 | – | – | – | 0.287 | 3.125 | 1.563 | 3.125 | – | – | –
CN([C@H]1CCNC1)S(=O)(=O)c1ccc(-c2cccc3[nH]c(N)nc23)c(-c2nn[nH]n2)c1S(N)(=O)=O [Example 244, (S)-4-(2-amino-1H-benzo[d]imidazol-7-yl)-N1-methyl-N1-(pyrrolidin-3-yl)-3-(1H-tetrazol-5-yl)benzene-1,2-disulfonamide] | 1.563 | 1.3 | 6.58 | 0.7813 | – | 2.00 | – | – | – | 6.75 | 1.563 | 0.7813 | 1.563 | – | – | –
C[C@H](N)c1nc2c(-c3ccc(S(=O)(=O)N[C@@H]4CCNC4)c(S(N)(=O)=O)c3-c3nn[nH]n3)cccc2[nH]1 [Example 272, 4-(2-((S)-1-aminoethyl)-1H-benzo[d]imidazol-4-yl)-N1-((R)-pyrrolidin-3-yl)-3-(2H-tetrazol-5-yl)benzene-1,2-disulfonamide] | 1.563 | 0.0667 | 1.36 | 0.7813 | – | 2.00 | – | – | – | 0.11 | 1.563 | 3.125 | 1.563 | – | – | –
N[C@H]1CNC[C@H]1NS(=O)(=O)c1ccc(-c2cnc3cc[nH]c3c2)c(-c2nn[nH]n2)c1S(N)(=O)=O [Example 320] | 1.563 | 0.0902 | 1.21 | 0.7813 | 0.296 | 2.00 | – | – | – | – | 3.125 | 0.7813 | 0.7813 | – | – | –
Nc1nc(-c2cccc(-c3ccc(S(=O)(=O)N[C@H]4CCNC4)c(S(N)(=O)=O)c3-c3nn[nH]n3)c2)c[nH]1 [Example 294, (S)-3′-(2-amino-1H-imidazol-4-yl)-N4-(pyrrolidin-3-yl)-2-(2H-tetrazol-5-yl)-[1,1′-biphenyl]-3,4-disulfonamide] | 1.563 | 0.197 | 1.72 | 0.7813 | 0.742 | 2.00 | – | – | – | – | 1.563 | 0.3906 | 0.7813 | – | – | –
NC[C@H](O)CNS(=O)(=O)c1ccc(-c2cccc3[nH]cnc23)c(-c2nn[nH]n2)c1S(N)(=O)=O [Example 307, (S)-4-(1H-benzo[d]imidazol-4-yl)-N1-(3-amino-2-hydroxypropyl)-3-(2H-tetrazol-5-yl)-benzene-1,2-disulfonamide] | 0.7813 | 0.0339 | 0.258 | 0.7813 | – | 1.00 | – | – | – | 0.113 | 1.563 | 1.563 | 1.563 | – | – | –
NC[C@@H](CO)NS(=O)(=O)c1ccc(-c2cccc3[nH]c(N)nc23)c(-c2nnn[nH]2)c1S(N)(=O)=O [Example 426, (S)-4-(2-Amino-1H-benzo[d]imidazol-4-yl)-N^1-(1-amino-3-hydroxypropan-2-yl)-3-(1H-tetrazol-5-yl)benzene-1,2-disulfonamide] | – | 0.0322 | 0.273 | – | – | – | – | – | – | 0.168 | 1.563 | 0.3906 | 0.7813 | 0.3906 | 0.7813 | 0.50
Nc1ccc(-c2ccc(S(=O)(=O)NC[C@@H]3CCNC3)c(S(N)(=O)=O)c2-c2nn[nH]n2)cn1 [Example 491, (R)-4-(6-aminopyridin-3-yl)-N1-(pyrrolidin-3-ylmethyl)-3-(2H-tetrazol-5-yl)benzene-1,2-disulfonamide] | – | 0.0939 | 0.271 | – | – | – | – | – | – | 0.132 | 1.563 | 0.1953 | 0.7813 | 0.7813 | 0.7813 | 1.00
Nc1nc2c(-c3ccc(S(=O)(=O)N[C@H]4CNC[C@@H]4F)c(S(N)(=O)=O)c3-c3nnn[nH]3)cccc2s1 [Example 59, 4-(2-amino-1,3-benzothiazol-4-yl)-N1-[(3S,4S)-4-fluoropyrrolidin-3-yl]-3-(1H-tetrazol-5-yl)benzene-1,2-disulfonamide] | 1.563 | 0.0357 | 0.558 | 1.563 | – | 1.00 | 3.125 | 1.563 | 1.563 | 0.309 | – | – | – | – | – | –
